Source: US7745450B2, “Pyrazolo[4,3-d]pyrimidines, processes for their preparation and methods for therapy” (Institute of Experimental Botany, priority 2002, dated 2010)
Where two headings read alike, the source gives them in different places.

What was measured:
[1] = molecular target: MMK1 protein kinase (Vicia faba, UniProt A0AAV1B7B8); assay: MMK1 protein kinase activity; format: biochemical
Procedure: Protein extraction and purification of pant CDK by binding to p13^suc1-beads or immunopurification with an antibody specific to the cdc2a-MS protein was carried out as described previously (Bögre et al. 1997, Plant Physiol. 113, 1997, 841-852). The MMK1 protein kinase was purified with a specific antibody from Vicia faba extracts as described by Bögre et al. 1997a, Plant Cell 9, 75-83). Protein kinase activity was measures as described above in Example 20. The quantification of radioactivity incorporated into histone H1 or myelin basic protein was undertaken using phosphoimager (FIG. 2).

[2] = test system: CEM (human lymphoblastoid leukemia); assay: In vitro cytotoxic activity, Calcein AM; format: cell-based; conditions: Homo sapiens, 72 h, three days
Procedure: We have been using the following cell lines: HELA (human cervical carcinoma), MCF7 (human breast adenocarcinoma), NIH 3T3 (mouse fibroblasts), HOS (human osteogenic sarcoma), HL 60 (human promyelocytic leukemia), G 361 (human malignant melanoma), K562 (human erythroleukemia), CEM (human lymphoblastoid leukemia). Tested drugs were added to the cell cultures in six different concentration and kept at 37° C. and 5% CO2 for three days. All cell lines were grown in DMEM medium (Gibco BRL) supplemented with 10% (v/v) fetal bovine serum and L-glutamine and maintained at 37° C. in a humidified atmosphere with 5% CO2. 10^4 cells were seeded into each well of 96 well plate, allowed to stabilize for at least 2 h and then tested compounds were added at various concentrations ranging from 200 to 0.2 μM in triplicates. Three days after drug addition Calcein AM solution (Molecular Probes) was added and let to enter the cells for 1 hour. Fluorescence of viable cells was quantified employing Fluoroskan Ascent (Microsystems).

[3] = test system: B16; assay: In vitro cytotoxic activity, Calcein AM; format: cell-based; conditions: Mus musculus, B16, 72 h, three days
[4] = molecular target: cdk1/cyclin B (CDC2) (Homo sapiens, UniProt P06493); assay: CDK inhibition assay, cdk1/cyclin B (CDC2) kinase, histone phosphorylation; format: biochemical
Sequence of cdk1/cyclin B (CDC2) (P06493 whole entry, species assumed): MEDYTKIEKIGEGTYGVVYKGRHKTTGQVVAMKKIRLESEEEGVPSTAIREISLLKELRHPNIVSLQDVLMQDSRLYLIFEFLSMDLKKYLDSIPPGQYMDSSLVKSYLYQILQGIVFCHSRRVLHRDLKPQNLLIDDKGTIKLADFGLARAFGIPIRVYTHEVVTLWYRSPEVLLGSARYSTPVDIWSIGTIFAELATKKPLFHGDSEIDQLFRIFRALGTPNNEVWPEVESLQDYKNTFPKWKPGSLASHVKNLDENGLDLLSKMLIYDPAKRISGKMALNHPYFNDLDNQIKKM
Sequence of cdk1/cyclin B (CDC2) (P14635 whole entry partner, species assumed): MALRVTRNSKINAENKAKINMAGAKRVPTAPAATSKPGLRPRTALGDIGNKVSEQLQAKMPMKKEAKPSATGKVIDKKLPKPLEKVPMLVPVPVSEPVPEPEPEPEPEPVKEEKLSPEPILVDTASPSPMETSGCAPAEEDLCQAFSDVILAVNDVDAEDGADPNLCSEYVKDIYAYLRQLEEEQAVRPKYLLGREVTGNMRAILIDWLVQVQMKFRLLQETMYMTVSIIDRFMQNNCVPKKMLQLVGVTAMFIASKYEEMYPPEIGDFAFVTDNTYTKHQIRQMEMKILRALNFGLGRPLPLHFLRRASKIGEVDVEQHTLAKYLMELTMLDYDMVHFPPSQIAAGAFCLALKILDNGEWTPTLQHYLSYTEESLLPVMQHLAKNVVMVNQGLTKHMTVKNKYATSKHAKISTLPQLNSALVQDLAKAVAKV
How it was run: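 Human cdk1/cyclin B activity measured with 1 mg/ml histone substrate, 15 μM ATP plus [γ-32P]ATP, in HEPES pH 7.4 buffer with 10 mM MgCl2. Phosphorylation quantified by phosphorimaging; activity expressed as % of maximum, IC50 from dose-response curves by graphic analysis.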

[5] = molecular target: IκB-α kinase; assay: IκB-α kinase inhibition, in vitro kinase assay; format: biochemical
[6] = test system: Cytokinin-dependent tobacco callus Nicotiana tabacum L. cv. Wisconsins 38; assay: Tobacco callus bioassay for cytotoxicity (herbicidal activity); format: cell-based; conditions: Nicotiana tabacum, 672 h
Procedure: The novel compounds have also been tested in tobacco callus bioassay for cytotoxicity (herbicidal activity) and induction of cell death. The compounds to be tested were dissolved in dimethylsulfoxide (DMSO) and the solution brought up to 10^−3 M with distilled water. […] Cytokinin-dependent tobacco callus Nicotiana tabacum L. cv. Wisconsins 38 Murashige-Skoog medium, containing per 1 liter: 4 μmol nicotinic acid, 2.4 μmol pyridoxine hydrochloride, 1.2 μmol thiamine, 26.6 μmol glycine, 1.37 μmol glutamine, 1.8 μmol myo.inositol, 30 g of sucrose, 8 g of agar, […] α-naphthylacetic acid and 0.5 μmol 6-benzylaminopurine. Sub cultivation was carried out every three weeks. Fourteen days before the bioassay, the callus tissue was transferred to the media without 6-benzylaminopurine. Compounds were tested with two different concentrations of 6-benzylaminopurine (10^−5 M and 10^−6 M). Inhibitory growth activity was determined from the increase in fresh callus weight after four weeks of cultivation. Five replicates were prepared for each concentration tested and the entire test was repeated at least twice.

[7] = read-out: 10^−5 M BAP IC50, 10^−5 M 6-benzylaminopurine, four weeks
[8] = read-out: 10^−6 M BAP IC50, 10^−6 M 6-benzylaminopurine, four weeks

Sequence of MMK1 protein kinase (A0AAV1B7B8 1-394): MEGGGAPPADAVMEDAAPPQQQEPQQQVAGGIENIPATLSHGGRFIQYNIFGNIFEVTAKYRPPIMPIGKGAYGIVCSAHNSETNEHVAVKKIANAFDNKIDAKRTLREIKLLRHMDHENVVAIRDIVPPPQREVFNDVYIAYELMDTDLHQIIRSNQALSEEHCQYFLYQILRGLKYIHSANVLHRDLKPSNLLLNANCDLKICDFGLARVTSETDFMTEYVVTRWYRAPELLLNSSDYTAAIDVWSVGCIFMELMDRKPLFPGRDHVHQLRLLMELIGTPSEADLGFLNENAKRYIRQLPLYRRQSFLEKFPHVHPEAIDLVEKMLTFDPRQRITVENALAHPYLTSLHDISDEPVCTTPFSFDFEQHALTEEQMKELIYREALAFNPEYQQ

SMILES	IC50 [1] [nM]	GI50 [2] [nM]	GI50 [3] [nM]	IC50 [4] [nM]	IC50 [5] [nM]	IC50 [6, 7] [nM]	IC50 [6, 8] [nM]
Cc1n[nH]c2c(Nc3ccc(Br)cc3)nc(NCCO)nc12	150	8500	8600				
Cc1n[nH]c2c(Nc3cc(N)cc(Cl)c3)nc(NCCO)nc12	300	13400	14500				
CC[C@H](CO)Nc1nc(NCc2cccc(O)c2)c2[nH]nc(C(C)C)c2n1	40	10500	12400				
Cc1n[nH]c2c(NCc3cc(O)c(Cl)cc3O)nc(NCCO)nc12	380	1500	2800				
Cc1n[nH]c2c(NCc3ccc(O)c(O)c3)nc(NCCO)nc12	24000	15500	18700				
Cc1n[nH]c2c(Nc3ccc(Cl)c(C(=O)O)c3)nc(NCCO)nc12	300	6500	7200				
CC[C@H](CO)Nc1nc(NCc2cccc(OC)c2O)c2[nH]nc(C(C)C)c2n1	12	3100	6200				
CC(=O)Oc1ccccc1CNc1nc(N[C@@H](CO)C(C)C)nc2c(C(C)C)n[nH]c12 [listing 1 of 2 here]	12	8700	10900				
Cc1n[nH]c2c(NCc3cccc(O)c3)nc(NCCO)nc12	840	9400	10200				
CC[C@H](CO)Nc1nc(NCc2cccc(C)c2O)c2[nH]nc(C(C)C)c2n1 [listing 1 of 2 here]	14	1900	2100				
CC[C@H](CO)Nc1nc(NCc2cc(O)c(Cl)cc2O)c2[nH]nc(C(C)C)c2n1	15	2500	4800				
Cc1n[nH]c2c(Nc3ccc(O)c(C(=O)O)c3)nc(NCCO)nc12	700	12400	15800				
CC(C)c1n[nH]c2c(Nc3ccc(Cl)cc3)nc(N[C@@H](CO)C(C)C)nc12				0.5	1	24000	2300
CC(C)c1n[nH]c2c(Nc3cccc(Cl)c3)nc(NC3CCCCC3N)nc12 (stereo not drawn)				4	12	> 50000	28000
CC[C@H](CO)Nc1nc(Nc2ccc(C(=O)O)c(Cl)c2)c2[nH]nc(C(C)C)c2n1				2	4	> 50000	12800
CC[C@H](CO)Nc1nc(Nc2ccc(Br)cc2)c2[nH]nc(C(C)C)c2n1				2	10	38000	4300
CC[C@H](CO)Nc1nc(Nc2ccc(Cl)c(C(=O)O)c2)c2[nH]nc(C(C)C)c2n1				1	2	28000	1500
COc1cccc(CNc2nc(N[C@@H](CO)C(C)C)nc3c(C(C)C)n[nH]c23)c1O				6	15	> 50000	21600

SMILES	IC50 [1] [nM]	GI50 [2] [nM]	GI50 [3] [nM]	IC50 [4] [nM]	IC50 [5] [nM]	IC50 [6, 7] [nM]	IC50 [6, 8] [nM]
CC(=O)Oc1cccc(CNc2nc(N[C@@H](CO)C(C)C)nc3c(C(C)C)n[nH]c23)c1				20	60	36000	8500
CC(C)c1n[nH]c2c(Nc3ccccc3)nc(N[C@@H](CO)C(C)C)nc12				1	3	42000	4800
CC(C)c1n[nH]c2c(NCc3ccccc3)nc(NC3CCCCC3N)nc12 (stereo not drawn)				10	20	> 50000	36000
CC[C@H](CO)Nc1nc(NCc2cccc(C)c2O)c2[nH]nc(C(C)C)c2n1 [listing 2 of 2 here]				6	14	> 50000	12300
CC(C)c1n[nH]c2c(Nc3ccc(Cl)c(C(=O)O)c3)nc(N[C@@H](CO)C(C)C)nc12				1	2	> 50000	9600
CC(C)c1n[nH]c2c(NCc3cccc(Cl)c3O)nc(N[C@@H](CO)C(C)C)nc12				2	4	> 50000	9400
CC[C@H](CO)Nc1nc(NCc2ccccc2)c2[nH]nc(C)c2n1				100	300	> 50000	37000
CC[C@H](CO)Nc1nc(Nc2ccc(Cl)c(N)c2)c2[nH]nc(C(C)C)c2n1				4	13	26000	1500
CC[C@H](CO)Nc1nc(Nc2ccc(O)c(C(=O)O)c2)c2[nH]nc(C(C)C)c2n1				10	30	> 50000	> 50000
CC[C@H](CO)Nc1nc(Nc2ccc(Cl)cc2)c2[nH]nc(C(C)C)c2n1				3	9	35000	3900
Cc1n[nH]c2c(NCc3ccccc3)nc(NCCCN)nc12 [3-aminopropylamino; benzylamino; methyl]				200	400	> 50000	45000
CC[C@H](CO)Nc1nc(Nc2ccccc2)c2[nH]nc(C(C)C)c2n1				20	110	48000	6200
CC(C)c1n[nH]c2c(Nc3cc(N)cc(Cl)c3)nc(N[C@@H](CO)C(C)C)nc12				8	15	38000	4200
CC(C)c1n[nH]c2c(Nc3ccc(Br)cc3)nc(N[C@@H](CO)C(C)C)nc12				2	3	> 50000	> 50000
CC(=O)Oc1ccccc1CNc1nc(N[C@@H](CO)C(C)C)nc2c(C(C)C)n[nH]c12 [listing 2 of 2 here]				6	12	38000	4200
CC(C)c1n[nH]c2c(Nc3cccc(Cl)c3)nc(NCCN)nc12				140	250	> 50000	48000
Cc1n[nH]c2c(NCc3ccccc3)nc(NCCN)nc12 [2-aminoethylamino; benzylamino; methyl]				2000	5000	> 50000	> 50000
CC[C@H](CO)Nc1nc(NCc2ccc(Cl)c(N)c2)c2[nH]nc(C(C)C)c2n1				80	24	25700	1300
